Drawing on patent US9758492B2, “IDO inhibitors” (Bristol-Myers Squibb Company, priority 2013, dated 2017), this text covers IC50 for 14 compounds.

pIC50: −log10 of the molar value.

As usually defined, the pIC50 is −log10 of the IC50, conventionally taken in molar units.

T1 sequence (P14902 whole entry): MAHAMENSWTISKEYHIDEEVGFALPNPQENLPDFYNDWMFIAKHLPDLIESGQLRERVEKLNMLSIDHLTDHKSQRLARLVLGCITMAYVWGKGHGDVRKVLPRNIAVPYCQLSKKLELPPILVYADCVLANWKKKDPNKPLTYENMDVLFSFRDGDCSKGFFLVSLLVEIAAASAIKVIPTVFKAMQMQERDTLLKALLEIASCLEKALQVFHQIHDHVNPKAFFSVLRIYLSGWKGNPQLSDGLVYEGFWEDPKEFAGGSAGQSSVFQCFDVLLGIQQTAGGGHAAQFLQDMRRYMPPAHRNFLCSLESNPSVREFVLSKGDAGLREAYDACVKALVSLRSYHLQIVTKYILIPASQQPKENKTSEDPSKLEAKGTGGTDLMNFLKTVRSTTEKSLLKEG

The experiment has as its target T1, Human IDO1 (Homo sapiens, UniProt P14902).
T1 construct: expressed in transfected cells; host or cells: HEK293
In words: IDO Kynurenine Assay with Human IDO1/HEK293 Cells. In kind it is cell-based. The following applies: read-out: HEK human IDO-1 (IC50). The method, boiled down: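 HEK293 cells stably expressing human IDO1, in phenol red-free RPMI/10% FBS, exposed to compound for 20 h at 37 °C. Stopped with 0.2% TCA (50 °C, 30 min); kynurenine in supernatant detected with Ehrlich reagent, absorbance 490 nm.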
Regarding `CC(C)CN(c1cc(F)c(-c2cc(F)ccc2C(=O)O)cc1NC(=O)Nc1ccc2c(c1)OCO2)C1CCC(F)(F)CC1` [Example 531, 5′-(3-(Benzo[d][1,3]dioxol-5-yl)ureido)-4′-((4,4-difluorocyclohexyl)(isobutyl)amino)-2′,5-difluoro-[1,1′-biphenyl]-2-carboxylic acid], the pIC50 was 7.70.

For the compound `CC(C)CN(c1cc(F)c(-c2ccccc2-c2nnn[nH]2)cc1NC(=O)Nc1ccc2c(c1)OCO2)C1CCC(F)(F)CC1` [Example 532, 1-(Benzo[d][1,3]dioxol-5-yl)-3-(4-((4,4-difluorocyclohexyl)(isobutyl)amino)-6-fluoro-2′-(1H-tetrazol-5-yl)-[1,1′-biphenyl]-3-yl)urea], the negative logarithm of the IC50 (pIC50) is 8.32.

Take `Cc1ccc(NC(=O)Nc2cc(-c3ccccc3C(=O)O)c(F)cc2N(CC(C)C)C2CCC(F)(F)CC2)cc1` [Example 533, 4′-((4,4-Difluorocyclohexyl)(isobutyl)amino)-2′-fluoro-5′-(3-(p-tolyl)ureido)-[1,1′-biphenyl]-2-carboxylic acid]: the pIC50 is 8.10.

Turning to `Cc1ccc(NC(=O)Nc2cc(-c3ccccc3-c3nnn[nH]3)c(F)cc2N(CC(C)C)C2CCC(F)(F)CC2)cc1` [Example 534, 1-(4-((4,4-Difluorocyclohexyl)(isobutyl)amino)-6-fluoro-2′-(1H-tetrazol-5-yl)-[1,1′-biphenyl]-3-yl)-3-(p-tolyl)urea], the negative logarithm of the IC50 (pIC50) was 8.52.

Consider `Cc1cc(NC(=O)Nc2cc(-c3cccc(C)c3C(=O)O)ccc2N(CC(C)C)CC(C)C)on1` [Example 535, 4′-(Diisobutylamino)-3-methyl-3′-(3-(3-methylisoxazol-5-yl)ureido)-[1,1′-biphenyl]-2-carboxylic acid], for which the pIC50 was 6.85.

For `Cc1ccc(NC(=O)Nc2cc(-c3cccc(C)c3C(=O)O)ccc2N(CC(C)C)CC(C)C)cc1` [Example 536, 4′-(Diisobutylamino)-3-methyl-3′-(3-(p-tolyl)ureido)-[1,1′-biphenyl]-2-carboxylic acid], the pIC50 was 7.15.

As to `CC(C)CN(c1cc(F)c(-c2ccccc2-c2nnn[nH]2)cc1NC(=O)Nc1ccccc1F)C1CCC(F)(F)CC1` [Example 537, 1-(4-((4,4-Difluorocyclohexyl)(isobutyl)amino)-6-fluoro-2′-(1H-tetrazol-5-yl)-[1,1′-biphenyl]-3-yl)-3-(2-fluorophenyl)urea], the pIC50 was 8.22.

Turning to `CC(C)CN(c1cc(F)c(-c2cc(F)ccc2C(=O)O)cc1NC(=O)Nc1ccccc1F)C1CCC(F)(F)CC1` [Example 538, 4′-((4,4-Difluorocyclohexyl)(isobutyl)amino)-2′,5-difluoro-5′-(3-(2-fluorophenyl)ureido)-[1,1′-biphenyl]-2-carboxylic acid], the pIC50 is 8.00.

As to `CCOc1ccc(NC(=O)Nc2cc(-c3ccccc3-c3nnn[nH]3)c(F)cc2N(CC(C)C)C2CCC(F)(F)CC2)cc1` [Example 539, 1-(4-((4,4-Difluorocyclohexyl)(isobutyl)amino)-6-fluoro-2′-(1H-tetrazol-5-yl)-[1,1′-biphenyl]-3-yl)-3-(4-ethoxyphenyl)urea], the negative-log IC50 (pIC50) is 8.48.

For `CCOc1ccc(NC(=O)Nc2cc(-c3cc(F)ccc3C(=O)O)c(F)cc2N(CC(C)C)C2CCC(F)(F)CC2)cc1` [Example 540], the negative-log IC50 (pIC50) was 8.00.

As to `Cc1ccc(NC(=O)Nc2cc(-c3cc(F)ccc3C(=O)O)ccc2N(C2CC2)C2CC2)cc1` [Example 541, 4′-(Dicyclopropylamino)-5-fluoro-3′-(3-(p-tolyl)ureido)-[1,1′-biphenyl]-2-carboxylic acid], the negative logarithm of the IC50 (pIC50) was 5.46.

As to `Cc1ccc(NC(=O)Nc2cc(-c3ccccc3-c3nnn[nH]3)ccc2N(C2CC2)C2CC2)cc1` [Example 542], the negative logarithm of the IC50 (pIC50) was 6.12.

On to `CCOc1ccc(NC(=O)Nc2cc(-c3cc(F)ccc3C(=O)O)ccc2N(C2CC2)C2CC2)cc1` [Example 543], for which the pIC50 was 5.14.

As to `CCOc1ccc(NC(=O)Nc2cc(-c3ccccc3-c3nnn[nH]3)ccc2N(C2CC2)C2CC2)cc1` [Example 544], the negative logarithm of the IC50 (pIC50) is 5.76.
